In patent publication US20160046618A1, “Cyclopropyl Fused Thiazin-2-Amine Compounds as Beta-Secretase Inhibitors and Methods of Use” (AMGEN INC., priority 2014, published 2016):

Tests used:
[1] = biological target: Recombinant Cat D (Homo sapiens (Human), UniProt P07339); assay: In vitro enzymatic Cathepsin D (Cat D) FRET assay; type: biochemical; details: read-out: IC50 IP (μM) CatD
Outline: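 Human Cat D expressed in CHO cells was incubated for one hour in 0.05 M citrate pH 3.5, 5 mM CHAPS, 10% DMSO final, with 20 nM quenched FRET peptide substrate. Reactions were stopped with Tris buffer raising pH to neutrality. Cleavage was read as fluorescence at excitation 500 nm, emission 580 nm.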

[2] = biological target: human recombinant BACE1 (Homo sapiens (Human), UniProt P56817); assay: In vitro enzymatic BACE1 FRET assay; type: biochemical; details: read-out: IC50 IP (μM) BACE1 enzyme
human recombinant BACE1, sequence (P56817 46-501): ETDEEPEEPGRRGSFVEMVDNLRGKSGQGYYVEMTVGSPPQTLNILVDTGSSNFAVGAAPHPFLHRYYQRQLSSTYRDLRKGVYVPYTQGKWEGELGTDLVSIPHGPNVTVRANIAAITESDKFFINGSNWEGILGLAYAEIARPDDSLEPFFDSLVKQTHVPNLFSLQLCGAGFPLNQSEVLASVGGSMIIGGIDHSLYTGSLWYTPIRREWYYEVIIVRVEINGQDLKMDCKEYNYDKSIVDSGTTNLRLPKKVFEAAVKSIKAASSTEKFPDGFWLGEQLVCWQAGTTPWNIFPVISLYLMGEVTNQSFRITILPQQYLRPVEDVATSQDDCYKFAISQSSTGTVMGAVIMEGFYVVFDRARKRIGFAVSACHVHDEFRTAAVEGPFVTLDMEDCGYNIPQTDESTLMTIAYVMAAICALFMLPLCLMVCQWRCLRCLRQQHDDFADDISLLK
Outline: (§1)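 Fluorescence from cleavage of a quenched peptide spanning the BACE site (50 nM) was read at 488 nm excitation, 590 nm emission. Purified enzyme (Ni-NTA) and compound reacted for one hour before a Tris stop shifted pH to neutral.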

[3] = biological target: human recombinant BACE2 (Homo sapiens (Human), UniProt Q9Y5Z0); assay: In vitro enzymatic BACE2 FRET assay; type: biochemical; details: read-out: IC50 IP (μM) BACE2 enzyme
human recombinant BACE2, sequence (Q9Y5Z0 63-518): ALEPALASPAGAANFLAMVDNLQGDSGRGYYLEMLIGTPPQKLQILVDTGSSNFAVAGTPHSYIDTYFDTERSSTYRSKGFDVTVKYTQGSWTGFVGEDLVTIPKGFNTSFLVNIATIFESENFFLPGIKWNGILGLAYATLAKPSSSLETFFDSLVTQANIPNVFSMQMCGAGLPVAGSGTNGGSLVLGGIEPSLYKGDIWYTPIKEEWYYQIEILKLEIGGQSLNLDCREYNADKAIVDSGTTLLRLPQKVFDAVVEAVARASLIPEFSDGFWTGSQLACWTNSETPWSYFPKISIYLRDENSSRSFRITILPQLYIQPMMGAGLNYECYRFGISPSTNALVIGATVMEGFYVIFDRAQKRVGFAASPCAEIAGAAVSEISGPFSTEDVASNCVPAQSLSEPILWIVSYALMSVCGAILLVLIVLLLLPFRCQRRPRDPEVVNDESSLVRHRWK
Outline: as §1

[4] = system: Aβ40 in conditioned medium of cells stably expressing Amyloid Precursor Protein (APP); assay: In vitro BACE-1 cell-based assay (Aβ40 sandwich ELISA); details: read-out: IC50 IP (μM) BACE1 cell
Outline: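 Aβ40 in supernatants measured by time-resolved fluorescence sandwich ELISA, with pAb40 as capture and biotin-6E10 as detector antibody, each incubated at 4 °C.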

Recombinant Cat D, sequence (P07339 65-412): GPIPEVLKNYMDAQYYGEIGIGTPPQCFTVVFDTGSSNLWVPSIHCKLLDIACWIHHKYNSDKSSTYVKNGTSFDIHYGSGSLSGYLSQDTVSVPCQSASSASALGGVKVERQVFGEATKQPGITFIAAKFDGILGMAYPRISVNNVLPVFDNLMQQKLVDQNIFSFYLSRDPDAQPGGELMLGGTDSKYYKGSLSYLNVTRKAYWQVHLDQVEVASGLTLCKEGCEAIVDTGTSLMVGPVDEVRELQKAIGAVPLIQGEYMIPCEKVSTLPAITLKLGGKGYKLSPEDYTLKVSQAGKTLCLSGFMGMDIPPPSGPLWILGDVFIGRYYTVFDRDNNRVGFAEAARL

SMILES: C#C[C@H](C)Oc1cnc(C(=O)Nc2ccc(F)c([C@@]3(C)N=C(N)S[C@@]4(C(=O)NC5CC5)C[C@H]43)c2)cn1 [Example 993, (1S,5S,6S)-3-amino-N-cyclopropyl-5-(2-fluoro-5-(((5-(((1S)-1-methyl-2-propyn-1-yl)oxy)-2-pyrazinyl)carbonyl)amino)phenyl)-5-methyl-2-thia-4-azabicyclo[4.1.0]hept-3-ene-1-carboxamide]
- IC50 [1]: 255 µM
- IC50 [2]: 0.48 nM
- IC50 [3]: 0.061 µM
- IC50 [4]: 0.000566 µM

SMILES: C#C[C@H](C)Oc1cnc(C(=O)Nc2ccc(F)c([C@@]3(C)N=C(N)S[C@@]4(C(=O)NC(C)(C)C)C[C@H]43)c2)cn1 [Example 994, (1S,5S,6S)-3-amino-N-tert-butyl-5-(2-fluoro-5-(((5-(((1S)-1-methyl-2-propyn-1-yl)oxy)-2-pyrazinyl)carbonyl)amino)phenyl)-5-methyl-2-thia-4-azabicyclo[4.1.0]hept-3-ene-1-carboxamide]
- IC50 [1]: 215 µM
- IC50 [2]: 0.69 nM
- IC50 [3]: 0.0689 µM
- IC50 [4]: 0.00116 µM

SMILES: CC(C)[C@@H](C)NC(=O)[C@]12C[C@H]1[C@@](C)(c1cc(NC(=O)c3cnc(OCC(F)(F)F)cn3)ccc1F)N=C(N)S2 [Example 997, (1S,5S,6S)-3-amino-5-(2-fluoro-5-(5-(2,2,2-trifluoroethoxy)pyrazine-2-carboxamido)phenyl)-5-methyl-N—((R)-3-methylbutan-2-yl)-2-thia-4-azabicyclo[4.1.0]hept-3-ene-1-carboxamide]
- IC50 [1]: 9.48 µM
- IC50 [2]: 0.893 nM
- IC50 [3]: 0.0509 µM
- IC50 [4]: 0.00672 µM

SMILES: C[C@]1(c2cc(NC(=O)c3cnc(OCC(F)(F)F)cn3)ccc2F)N=C(N)S[C@@]2(C(=O)N3CCOCC3)C[C@H]21 [Example 998, N-(3-((1S,5S,6S)-3-amino-5-methyl-1-(morpholine-4-carbonyl)-2-thia-4-azabicyclo[4.1.0]hept-3-en-5-yl)-4-fluorophenyl)-5-(2,2,2-trifluoroethoxy)pyrazine-2-carboxamide]
- IC50 [1]: > 400 µM
- IC50 [2]: 0.146 nM
- IC50 [3]: 0.0754 µM
- IC50 [4]: 0.0017 µM

SMILES: C[C@]1(c2cc(NC(=O)c3cnc(OCC(F)(F)F)cn3)ccc2F)N=C(N)S[C@@]2(C(=O)NCC(F)F)C[C@H]21 [Example 999, (1S,5S,6S)-3-amino-N-(2,2-difluoroethyl)-5-(2-fluoro-5-(5-(2,2,2-trifluoroethoxy)pyrazine-2-carboxamido)phenyl)-5-methyl-2-thia-4-azabicyclo[4.1.0]hept-3-ene-1-carboxamide]
- IC50 [1]: 180 µM
- IC50 [2]: 0.09 nM
- IC50 [3]: 0.0755 µM
- IC50 [4]: 0.00613 µM

SMILES: CN(C)C(=O)[C@]12C[C@H]1[C@@](C)(c1cc(NC(=O)c3cnc(OCC(F)(F)F)cn3)ccc1F)N=C(N)S2 [Example 1000, (1S,5S,6S)-3-amino-5-(2-fluoro-5-(5-(2,2,2-trifluoroethoxy)pyrazine-2-carboxamido)phenyl)-N,N,5-trimethyl-2-thia-4-azabicyclo[4.1.0]hept-3-ene-1-carboxamide]
- IC50 [1]: 1000 µM
- IC50 [2]: 0.07 nM
- IC50 [3]: 0.00345 µM
- IC50 [4]: 0.000921 µM

SMILES: COC[C@H](C)Oc1cnc(C(=O)Nc2ccc(F)c([C@@]3(C)N=C(N)S[C@@]4(C(=O)NC5CC5)C[C@H]43)c2)cn1 [Example 1001, (1S,5S,6S)-3-amino-N-cyclopropyl-5-(2-fluoro-5-(((5-((1S)-2-methoxy-1-methylethoxy)-2-pyrazinyl)carbonyl)amino)phenyl)-5-methyl-2-thia-4-azabicyclo[4.1.0]hept-3-ene-1-carboxamide]
- IC50 [1]: 492 µM
- IC50 [2]: 0.059 nM
- IC50 [3]: 0.356 µM
- IC50 [4]: 0.00589 µM

SMILES: CC(C)(C)NC(=O)[C@]12C[C@H]1[C@@](C)(c1cc(NC(=O)c3cnc(OCC(F)(F)F)cn3)ccc1F)N=C(N)S2 [Example 1002, (1S,5S,6S)-3-amino-N-tert-butyl-5-(2-fluoro-5-(((5-(2,2,2-trifluoroethoxy)-2-pyrazinyl)carbonyl)amino)phenyl)-5-methyl-2-thia-4-azabicyclo[4.1.0]hept-3-ene-1-carboxamide]
- IC50 [1]: 82.7 µM
- IC50 [2]: 1.77 nM
- IC50 [3]: 0.165 µM
- IC50 [4]: 0.00484 µM

SMILES: COC[C@H](C)Oc1cnc(C(=O)Nc2ccc(F)c([C@@]3(C)N=C(N)S[C@@]4(C(=O)NC(C)(C)C)C[C@H]43)c2)cn1 [Example 1003, (1S,5S,6S)-3-amino-N-tert-butyl-5-(2-fluoro-5-(((5-((1S)-2-methoxy-1-methylethoxy)-2-pyrazinyl)carbonyl)amino)phenyl)-5-methyl-2-thia-4-azabicyclo[4.1.0]hept-3-ene-1-carboxamide]
- IC50 [1]: 297 µM
- IC50 [2]: 5.65 nM
- IC50 [3]: 0.48 µM
- IC50 [4]: 0.021 µM

SMILES: C#CCOc1cnc(C(=O)Nc2cc(F)c(F)c([C@@]3(C)N=C(N)S[C@@]4(C(=O)N5CCOCC5)C[C@H]43)c2)cn1 [Example 1004, N-(3-((1S,5S,6S)-3-amino-5-methyl-1-(morpholine-4-carbonyl)-2-thia-4-azabicyclo[4.1.0]hept-3-en-5-yl)-4,5-difluorophenyl)-5-(prop-2-yn-1-yloxy)pyrazine-2-carboxamide]
- IC50 [1]: 14.9 µM
- IC50 [2]: 0.1 nM
- IC50 [3]: 0.00235 µM
- IC50 [4]: 0.000324 µM

SMILES: C#CCOc1cnc(C(=O)Nc2ccc(F)c([C@@]3(C)N=C(N)S[C@@]4(C(=O)N5CCOCC5)C[C@H]43)c2)cn1 [Example 1005, N-(3-((1S,5S,6S)-3-amino-5-methyl-1-(morpholine-4-carbonyl)-2-thia-4-azabicyclo[4.1.0]hept-3-en-5-yl)-4-fluorophenyl)-5-(prop-2-yn-1-yloxy)pyrazine-2-carboxamide]
- IC50 [1]: 72.1 µM
- IC50 [2]: 0.384 nM
- IC50 [3]: 0.00516 µM
- IC50 [4]: 0.00108 µM

SMILES: C#CCOc1cnc(C(=O)Nc2ccc(F)c([C@@]3(C)N=C(N)S[C@@]4(C(=O)NC(C)(C)CF)C[C@H]43)c2)cn1 [Example 1006, (1S,5S,6S)-3-amino-N-(1-fluoro-2-methylpropan-2-yl)-5-(2-fluoro-5-(5-(prop-2-yn-1-yloxy)pyrazine-2-carboxamido)phenyl)-5-methyl-2-thia-4-azabicyclo[4.1.0]hept-3-ene-1-carboxamide]
- IC50 [1]: 7.08 µM
- IC50 [2]: 0.885 nM
- IC50 [3]: 0.0213 µM
- IC50 [4]: 0.000575 µM

SMILES: COC[C@]12C[C@H]1[C@@](C)(c1cc(NC(=O)c3cnc(Cl)cn3)cc(F)c1F)N=C(N)S2 [Example 1007]
- IC50 [1]: 460 µM
- IC50 [2]: 7.02 nM
- IC50 [3]: 0.00484 µM
- IC50 [4]: 0.73 µM

SMILES: COC[C@]12C[C@H]1[C@@](C)(c1cc(NC(=O)c3cnc(OCc4nc(C)no4)cn3)ccc1F)N=C(N)S2 [Example 1008, N-(3-((1S,5S,6S)-3-amino-1-(methoxymethyl)-5-methyl-2-thia-4-azabicyclo[4.1.0]hept-3-en-5-yl)-4-fluorophenyl)-5-((3-methyl-1,2,4-oxadiazol-5-yl)methoxy)-2-pyrazinecarboxamide]
- IC50 [1]: > 400 µM
- IC50 [2]: 4.71 nM
- IC50 [3]: 0.195 µM
- IC50 [4]: 0.0022 µM

SMILES: C#C[C@H](C)Oc1cnc(C(=O)Nc2cc(F)c(F)c([C@@]3(C)N=C(N)S[C@@]4(COC)C[C@H]43)c2)cn1 [Example 1009, N-(3-((1S,5S,6S)-3-amino-1-(methoxymethyl)-5-methyl-2-thia-4-azabicyclo[4.1.0]hept-3-en-5-yl)-4,5-difluorophenyl)-5-(((1S)-1-methyl-2-propyn-1-yl)oxy)-2-pyrazinecarboxamide]
- IC50 [1]: 936 µM
- IC50 [2]: 0.695 nM
- IC50 [3]: 0.0436 µM
- IC50 [4]: 0.00254 µM

SMILES: COC[C@H](C)Oc1cnc(C(=O)Nc2cc(F)c(F)c([C@@]3(C)N=C(N)S[C@@]4(C#N)C[C@H]43)c2)cn1 [Example 1010, N-(3-((1S,5S,6S)-3-amino-1-cyano-5-methyl-2-thia-4-azabicyclo[4.1.0]hept-3-en-5-yl)-4,5-difluorophenyl)-5-(((S)-1-methoxypropan-2-yl)oxy)pyrazine-2-carboxamide]
- IC50 [1]: > 400 µM
- IC50 [2]: 3.2 nM
- IC50 [3]: 0.0669 µM
- IC50 [4]: 0.0309 µM

SMILES: C#C[C@H](C)Oc1cnc(C(=O)Nc2cc(F)c(F)c([C@@]3(C)N=C(N)S[C@@]4(C#N)C[C@H]43)c2)cn1 [Example 1011, N-(3-((1S,5S,6S)-3-amino-1-cyano-5-methyl-2-thia-4-azabicyclo[4.1.0]hept-3-en-5-yl)-4,5-difluorophenyl)-5-(((1S)-1-methyl-2-propyn-1-yl)oxy)-2-pyrazinecarboxamide]
- IC50 [1]: 741 µM
- IC50 [2]: 0.465 nM
- IC50 [3]: 0.00908 µM
- IC50 [4]: 0.00353 µM

SMILES: C[C@]1(c2cc(NC(=O)c3ccc(OCC(F)(F)F)cn3)cc(F)c2F)N=C(N)S[C@@]2(C#N)C[C@H]21 [Example 1012, N-(3-((1S,5S,6S)-3-amino-1-cyano-5-methyl-2-thia-4-azabicyclo[4.1.0]hept-3-en-5-yl)-4,5-difluorophenyl)-5-(2,2,2-trifluoroethoxy)-2-pyridinecarboxamide]
- IC50 [1]: > 400 µM
- IC50 [2]: 3.99 nM
- IC50 [3]: 0.095 µM
- IC50 [4]: 0.111 µM
